Tests used:
[1] = literature; cited from earlier work
[2] = tested on: microsomal epoxide hydrolase (mEH) and glutathione S-transferases (GST); conditions: literature; cited from earlier work
[3] = literature; cited from earlier work; remark: listed apart in the source
[4] = induced by carbon tetrachloride and acetaminophen; cited from earlier work
[5] = tested on: serum ALT (alanine aminotransferase); assay: Effect of inhibiting hepatic disorder induced by acetaminophen (APAP): serum ALT; assay type: in vivo, male ICR mice; conditions: APAP 0.5 g/kg oral, compound 50 mg/kg per day oral, 3 days; for Serum ALT value: mean±SE
Text: (§1) In addition, the liver protective effects of the compound of the present invention can also be confirmed by acetaminophen model [see, Wang et al., Toxicology and applied Pharmacology, 136, 146-154, 1996]. Acetaminophen is rapidly metabolized by CYP2E1 to cause hepatic toxicity, which results in structural and functional change in liver cellular membrane, causing necrosis in hepatic lobule, an increase in blood ALT and LDH (lactate dehydrogenase) levels.
(§2) In the present invention, the inhibiting effect of the compound of formula (I) on hepatic disorder, induced by carbon tetrachloride and acetaminophene, was determined after oral administration of the novel compound according to the present invention to mouse as the experimental animal for 3 days. The degree of liver damage in respective experimental animal was determined by measuring ALT and LDH levels in blood [see, Biol. Pharm. Bull., 20, 4, 381-385, 1997; Toxicology and Applied Pharmacology, 95, 1-11, 1988], and further by removing the liver, staining (×100) the liver with hematoxylin and eosin and then observing with microscope to examine the degree of hepatocyte necrosis.
(§3) Effect of inhibiting hepatic disorder induced by acetaminophen (APAP)
(§4) The liver protective effect of the compound according to the present invention was examined according to the known method [see, Wang et al., Toxicology and applied Pharmacology, 136, 146-154, 1996] as specifically described below.
(§5) The compound according to the present invention was suspended in corn oil and the resulting suspension was administered in an amount of 1.0 ml/kg. Each group was composed of 3 to 10 male ICR mice (5-6 weeks) and the test compound was orally administered for 3 days in the dose of 50 mg/kg per day. After 2 hours from the last administration of the test compound, acetaminophen was orally administered in an amount of 0.5 g/kg. In this experiment, silymarin was used as the comparative compound. After 22 hours from the administration of acetaminphen, blood was taken from the individual test animal and ALT and LDH values in serum were determined. The results as obtained are described in the following Tables 4 and 5 (in which ALT and LDH values are represented by mean±SE). In addition, liver was removed from the test animals and then observed according to the same manner as Experiment 3 to evaluate the degree of hepatocyte necrosis.

[6] = tested on: radiation damage; assay: Protective effect against radiation damage: survival of mouse; assay type: in vivo, male ICR mouse; conditions: 100 mg/kg per day, 2 days
Text: Further, the present inventors have confirmed the protective effect of allylthiopyridazine derivative according to the present invention against radiation by administering the active compound to mouse, irradiating the radiation of 8 or 9Gy and, after a certain period, measuring the survival rate of mouse. For example, the survival rate during 30 days of 8Gy radiation can be seen from FIG. 3, and the specific experimental result is described in the following Table 7. Specifically, when 8Gy radiation is used, the survival rate during 30 days in the groups which only radiation was used was merely 48%, whereas the survival rates during 30 days in the groups to which the compounds of Examples 4 and 8 are previously administered were 76% and 70%, respectively. Therefore, it can be noted that the protective effect of the compound according to the present invention against radiation is proven to be a very significant novel discovery.
Protective effect against radiation damage
In order to confirm the protective effect of the compound of the present invention against radiation damage, the following test was conducted.
Male ICR mouse was bred in a chamber to which sterile atmosphere is supplied, at inner temperature 20-23° C. and relative humidity 50% with sufficient water and feed. When the weight of mouse reached 20-25 g, the compound of the present invention was suspended in corn oil and then administered for 2 days in the dose of 100 mg/kg (1 ml/kg) per day. After 3 hours from the last administration of the test compound, 8 or 9 Gy radiation was irradiated to mouse. Specifically, mouse was introduced into a box made of acryl which limited his movement, and then radiation produced from ^60 Co radioactive material was irradiated to whole body at the irradiating rate of 115.8 cGy/min. The dimension of acryl box was 31×31 cm^2, which is the same as the irradiating area of radiation. After 7 days of irradiation of γ-ray, mouse was sacrificed to conduct the histopathologic observation. The result of examining the survival rate during 30 days of irradiation of 8 Gy radiation is shown in FIG. 3, and the result of determining the survival rate after a certain period (10, 13 or 30 days) from irradiation of 8 or 9 Gy radiation is described in the following Table 7.

[7] = tested on: serum LDH (lactate dehydrogenase); assay: Effect of inhibiting hepatic disorder induced by acetaminophen (APAP): serum LDH; assay type: in vivo, male ICR mice; conditions: APAP 0.5 g/kg oral, compound 50 mg/kg per day oral, 3 days; for Serum LDH value: mean±SE
Text: as §1, §2, §3, §4, §5

[8] = tested on: serum ALT (alanine aminotransferase); assay: Effect of inhibiting hepatic disorder induced by carbon tetrachloride: serum ALT; assay type: in vivo, male ICR mice; conditions: CCl4 100 μl/kg i.p., compound 50 mg/kg per day oral, 3 days; for Serum ALT value: mean±SE
Text: First, the effects of allylthiopyridazine derivative of formula (I) for prevention and treatment of hepatic diseases was examined using carbon tetrachloride model and acetaminophen model.
Carbon tetrachloride model [see, Philippe letteron et al., Biochemical Pharmacology, 39, 12, 2027-2034, 1990] is most frequently used as an experimental model of hepatic disorder and has been established on the basis of the fact that carbon tetrachloride is converted into trichloromethyl free radical (CCl3 .), a highly toxic metabolite, by the action of cytochrome P-450 in body. This metabolite strongly binds with thiol group of liver microsomal membrane protein to produce a lipid radical, which is then converted into peroxy radical in the presence of oxygen, thereby stimulating the peroxidation reaction of membrane lipid. That is, carbon tetrachloride inhibits protein biosynthesis in liver, increases blood ALT (alanine aminotransferase) and causes centrilobular necrosis of liver cells.
as §2
Effect of inhibiting hepatic disorder induced by carbon tetrachloride
(§6) The liver protective effect of the compound according to the present invention was examined according to the known method [see, Philippe letteron et al., Biochemical Pharmacology, 39, 12, 2027-2034, 1990] as specifically described below.
(§7) The compound according to the present invention was suspended in corn oil and the resulting suspension was administered in an amount of 1.0 ml/kg. Each group was composed of 3 to 10 male ICR mice (5-6 weeks) and the test compound was orally administered for 3 days in the dose of 50 mg/kg per day. After the test compound was administered, carbon tetrachloride was intraperitoneally injected in an amount of 100 μl/kg. In this experiment, silymarin was used as the comparative compound. After 24 hours from administration of carbon tetrachloride, blood was taken from the test animal by cardiac perforation and ALT value in serum was determined. The result obtained is described in the following Table 2 (in which ALT value is represented by mean±SE). The ALT unit in serum was determined by centrifuging blood to separate serum as the supernatant, and then the separated serum were subjected to Reitman-Frankel method by means of a commercially available kit (BC101-O,P, Youngdong Pharm.). That is, DL-alanine and α-ketoglutarate were used as the substrate solution to which 2,4-dinitrophenylhydrazine was added to produce hydrazone. Then, sodium hydroxide was added to hydrazone to colorize and then the absorbance was measured at 505 nm.

[9] = tested on: hepatocyte necrosis; assay: Effect of inhibiting hepatic disorder induced by carbon tetrachloride: hepatocyte necrosis; assay type: in vivo, male ICR mice; conditions: CCl4 model, 50 mg/kg per day oral, 3 days; for Degree of necrosis 1: number of animals: grade 1 mild lesion; for Degree of necrosis 2: number of animals: grade 2 moderate lesion; for Degree of necrosis 3: number of animals: grade 3 severe lesion; for Degree of necrosis 4: number of animals: grade 4 diffused lesion
Method: as §2, §6, §7
(§8) In addition, liver was removed from the test animals, stained (×100) with hematoxylin and eosin and then observed by microscope. The degree of hepatocyte necrosis was evaluated according to the following 5 grades: 0 no lesion, 1 mild lesion, 2 moderate lesion, 3 severe lesion and 4 diffused lesion.

[10] = tested on: hepatocyte necrosis; assay: Effect of inhibiting hepatic disorder induced by acetaminophen (APAP): hepatocyte necrosis; assay type: in vivo, male ICR mice; conditions: APAP model, 50 mg/kg per day oral, 3 days; for Degree of necrosis 0: number of animals: grade 0 no lesion; for Degree of necrosis 1: number of animals: grade 1 mild lesion; for Degree of necrosis 2: number of animals: grade 2 moderate lesion; for Degree of necrosis 3: number of animals: grade 3 severe lesion; for Degree of necrosis 4: number of animals: grade 4 diffused lesion
Method: as §2, §8, §4, §5

Row | Compound | effect on oncogenesis and hepatotoxicity of 1,2-dimethylhydrazine [1] | Inhibiting rate (serum ALT) [5] | Serum ALT value [5] | Inhibiting rate (serum LDH) [7] | Serum LDH value [7] | Inhibiting rate (serum ALT) [8] | Serum ALT value [8] | Degree of necrosis 1: number of animals [9] | Degree of necrosis 2: number of animals [9] | Degree of necrosis 3: number of animals [9] | Degree of necrosis 4: number of animals [9] | Degree of necrosis 0: number of animals [10] | Degree of necrosis 1: number of animals [10] | Degree of necrosis 2: number of animals [10] | Degree of necrosis 3: number of animals [10] | Degree of necrosis 4: number of animals [10] | also measured
1 | C=CCS[S+]([O-])CC=C (stereo not drawn) [allicin] | inhibiting oncogenesis due to 1,2-dimethylhydrazine and protecting liver from hepatotoxicity of 1,2-dimethylhydrazine |  |  |  |  |  |  |  |  |  |  |  |  |  |  |  | 
2 | C=CCSCC=C [diallyl sulfide] | inhibiting oncogenesis due to 1,2-dimethylhydrazine and protecting liver from hepatotoxicity of 1,2-dimethylhydrazine |  |  |  |  |  |  |  |  |  |  |  |  |  |  |  | 
3 | Cc1c(-c2cnccn2)ssc1=S [Oltipraz] |  |  |  |  |  |  |  |  |  |  |  |  |  |  |  |  | expression rate of mEH and GST [2]: increases the expression rate of microsomal epoxide hydrolase (mEH) and glutathione S-transferases (GST); protection of cellular tissue from radiation [3]: protect the cellular tissue from radiation
4 | CC(C)OC(=O)C(C(=O)OC(C)C)=C1SC=CS1 [malotilate] |  |  |  |  |  |  |  |  |  |  |  |  |  |  |  |  | effect of preventing and treating hepatic diseases [4]: good effect of preventing and treating hepatic diseases induced by carbon tetrachloride and acetaminophen
5 | C=CCSc1ccc(OCC)nn1 [Example 8] |  | 99% | 98 ± 26 KA unit/l | 95.6% | 1193 ± 546 KA unit/l | 33% | 6123 ± 2230 KA unit/l | 1 | 2 | 1 | 3 | 7 | 0 | 2 | 0 | 0 | survival number ([6]; 10 days of 9 Gy radiation): 17/23; survival rate ([6]; 10 days of 9 Gy radiation): 74%; survival number ([6]; 13 days of 9 Gy radiation): 5/23; survival rate ([6]; 13 days of 9 Gy radiation): 22%; survival number ([6]; 30 days of 8 Gy radiation): 16/23; survival rate ([6]; 30 days of 8 Gy radiation): 70%
6 | C=CCSc1ccc(OCCC)nn1 [Example 12, 3-(n-propoxy)-6-allylthiopyridazine] |  | 25% | 2749 ± 1352 KA unit/l | 59% | 5480 ± 2346 KA unit/l | 40% | 5585 ± 705 KA unit/l | 0 | 2 | 3 | 4 | 0 | 1 | 1 | 1 | 3 | Degree of necrosis 0: number of animals ([9]; grade 0 no lesion): 0

Source: patent US5942511A, “Allylthiopyridazine derivatives and process for preparing the same” (Kwon; Soon Kyoung, priority 1998, dated 1999)
